Results as given in paper PMC11862924, “Phenylpyrazoles as Inhibitors of the m^6A RNA-Binding Protein YTHDF2” (JACS Au, 2025).
“Also recorded” adds a separate entry of the source.

Tests used:
[1] = MTT cytotoxicity assay, HCT116; format: cell-based; details: human, HCT116 cells, triplicates, read-out: Cytotoxicity against cancer cells (IC50), HCT116
Description: JAR, K562, and HCT116 cells were seeded in 96-well plates (3500 cells/well) and incubated for 8 h. The medium with different concentrations of compounds (100, 33.3, 11.1, 3.7, 1.2, and 0.4 μM) was added to the 96-well plates. Data were normalized to the medium with 0.1% DMSO. After incubation for 72 h, MTT solution (5 mg/mL, 20 μL) was added per well in a dark environment and incubated for 4 h. After the medium was discarded, DMSO (150 μL) was added per well, and the absorbance was measured at 492 nm by a plate reader (TECAN Spark).

[2] = molecular target: T1, YTHDF1 (residues 375-552) (Homo sapiens, UniProt Q9BYJ9); experiment: FP assay with YTH domain of YTHDF1; format: binding; details: 0.5 µM YTHDF1, m6A RNA probe 4 nM
T1 construct: Plasmids of the YTH domain of YTHDF1 (residues 375–552); made in house; host or cells: Escherichia coli BL21(DE3); plasmid from the Zhou lab (Boston College)
T1 sequence (Q9BYJ9 375-552): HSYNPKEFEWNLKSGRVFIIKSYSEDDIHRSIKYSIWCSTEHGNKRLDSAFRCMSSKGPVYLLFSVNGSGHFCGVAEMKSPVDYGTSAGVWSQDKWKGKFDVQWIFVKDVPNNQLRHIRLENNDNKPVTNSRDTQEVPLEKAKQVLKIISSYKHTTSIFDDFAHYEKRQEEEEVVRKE
Description: (§1) The FP assay was performed in 384-well black plates (Corning no. 4514) with a total reaction volume of 15 μL. The final concentrations of protein (YTHDF2) and RNA were […], respectively, in a buffer containing 20 mM HEPES/KOH pH 7.5, 50 mM NaCl, 0.005% Tween 20, and 1 mM GSH (DTT). Compounds were incubated with protein, added FAM-m^6A RNA probe ([…](m6)ACUGUG) (purchased from IDT), and incubated at 4 °C for 30 min. The fluorescence polarization was measured using a plate reader (TECAN Spark) under an excitation wavelength of 485 nm and an emission wavelength of 535 nm with a bandwidth of 20 nm. […] The data were determined using GraphPad Prism 9.
Figure S8. The FP assay of YTHDF1 binding to the m6A RNA substrate. (A)The purification of YTHDF1 (residues 375-552), molecular weight: 21.9 kDa. (B) The anisotropy values using different concentrations of YTHDF1 with the m6A RNA probe (4 nM), which was used to decide the appropriate […] concentration for the FP (0.5 µM of YTHDF1, Z-factor: 0.65). (C) The […]
(§2) (1 picture or pasted object on this page, not shown here)

[3] = molecular target: T2, YTHDC1 (residues 345-509) (Homo sapiens, UniProt Q96MU7); experiment: FP assay with YTH domain of YTHDC1; format: binding; details: 2.0 µM YTHDC1
T2 construct: YTHDC1 (residues 345–509); made in house; host or cells: Escherichia coli BL21(DE3); plasmid from the Zhou lab (Boston College)
Description: as §1
Figure S10. The FP assay of YTHDC1 binding to the m6A RNA substrate. (A) The purification of YTHDC1 (residues 345-509), molecular weight: 19.9 kDa. (B) The anisotropy values using different concentrations of YTHDC1 with the m6A RNA probe (4 nM), which was used to decide the appropriate […] concentration for the FP (2.0 µM of YTHDC1, Z-factor: 0.54). (C) CK- […]
as §2

[4] = molecular target: T3, YTHDC2 (residues 1285-1424) (Homo sapiens, UniProt Q9H6S0); experiment: FP assay with YTH domain of YTHDC2; format: binding; details: 5.0 µM YTHDC2
T3 construct: YTHDC2 (residues 1285–1424); made in house; host or cells: Escherichia coli BL21(DE3); plasmid from the Zhou lab (Boston College)
T3 sequence (Q9H6S0 1285-1424): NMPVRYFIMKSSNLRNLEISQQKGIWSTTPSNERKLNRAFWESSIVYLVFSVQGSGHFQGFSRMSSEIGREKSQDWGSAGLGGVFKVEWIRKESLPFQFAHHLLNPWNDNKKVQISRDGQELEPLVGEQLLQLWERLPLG
Description: as §1
Figure S11. The FP assay of YTHDC2 binding to the m6A RNA substrate. (A)The purification of YTHDC2 (residues 1285-1424), molecular weight: 17.4 kDa. (B) The anisotropy values using different concentrations of YTHDC2 with the m6A RNA probe (4 nM), which was used to decide the appropriate YTHDC2 concentration for the FP (5.0 µM of YTHDC2, Z-factor: 0.83). (C) The […]
as §2

YTHDF1 = molecular target: T4, YTHDF1 (Homo sapiens, UniProt Q9BYJ9); experiment: EMSA with YTHDF1; format: binding; details: m6A RNA 20 nM
T4 construct: Plasmids of the YTH domain of YTHDF1 (residues 375–552); made in house; host or cells: Escherichia coli BL21(DE3); plasmid from the Zhou lab (Boston College)
T4 sequence (Q9BYJ9 375-552): T1 sequence (Q9BYJ9 375-552)
Description: (§3) Compounds with different concentrations (3.1–100 μM) were incubated with 250 nM YTH-domain and 20 nM FAM-17mer-RNA in a buffer containing 20 mM HEPES, pH 8.2, 50 mM NaCl, 0.05% Triton X-100, and 5% v/v glycerol for 20 min at 4 °C. The samples were subjected to 12% native polyacrylamide gel and run at 120 V for 90 min at 4 °C using 0.5× TBE buffer. Gel imaging was performed in ChemiDoc MP (Bio-Rad), and Cy2/Alexa488 fluorescence was detected with a 1-min exposure time. Quantification of the gel image was performed by ImageJ.
Figure S12. The EMSA of YTHDF1 binding to the m6A RNA substrate. (A) The YTHDF1–RNA
complex formation in EMSA using m6A RNA (20 nM) and different concentrations of YTHDF1 . (B)
consistent results with that of FP.
as §2

YTHDF3 = molecular target: T5, YTHDF3 (Homo sapiens, UniProt Q7Z739); experiment: EMSA with YTHDF3; format: binding; details: m6A RNA 20 nM
T5 construct: YTHDF3 (residues 391–585); made in house; host or cells: Escherichia coli BL21(DE3); plasmid from the Zhou lab (Boston College)
T5 sequence (Q7Z739 391-585): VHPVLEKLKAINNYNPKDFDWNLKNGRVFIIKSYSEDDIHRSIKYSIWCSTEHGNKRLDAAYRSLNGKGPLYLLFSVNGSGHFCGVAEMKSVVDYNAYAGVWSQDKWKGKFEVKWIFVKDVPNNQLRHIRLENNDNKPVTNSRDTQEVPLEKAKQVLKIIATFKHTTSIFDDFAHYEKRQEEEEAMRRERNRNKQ
Description: as §3
Figure S13. The EMSA of YTHDF3 binding to the m 6A RNA substrate. (A) The YTHDF 3–RNA
complex formation in EMSA using m 6A RNA (20 nM) and different concentrations of YTHDF1 . (B)
as §2

SMILES | IC50 at 72 h [1] | IC50 ([2]; read-out: IC50 against YTHDF1 in FP) | inhibitory activity against YTHDC1 in FP (in words) [3] | inhibition at 100 µM ([4]; read-out: inhibition of YTHDC2 at 100 μM in FP, 100 μM compound) | inhibition of m6A RNA binding to YTHDF1 in EMSA (in words) (YTHDF1) | inhibition of m6A RNA binding to YTHDF3 in EMSA (in words) (YTHDF3) | inhibitory activity against YTHDF1 in FP (in words) [2] | inhibitory activity against YTHDC2 in FP (in words) [4]
O=C(O)c1ccc(-n2cc(C(=O)c3cc(Cl)cc(Cl)c3O)cn2)cc1 [CK-61] | > 50 µM | 67.5 µM | did not show detectable inhibitory activity | 36.1% | minimal inhibition | did not show detectable inhibitory activity; also recorded: no activity |  | 
O=C(O)c1ccc(-n2cc(C(=O)c3c(O)ccc4ccccc34)cn2)cc1 [CK-75] | 33.3 µM |  | did not show detectable inhibitory activity; also recorded: inactive |  | did not show detectable inhibition | did not show detectable inhibitory activity; also recorded: did not show detectable inhibition | inactive | inactive
Cc1cc(O)c(C(=O)c2cnn(-c3ccc(C(=O)O)cc3)c2)cc1Cl [CK-79] | 33.6 ± 14.7 µM |  | did not show detectable inhibitory activity; also recorded: inactive |  | did not show detectable inhibition | did not show detectable inhibitory activity; also recorded: did not show detectable inhibition | inactive | inactive
